# Measured values from patent US20210315893A1 (Galapagos NV, priority 2017, published 2021).
# Experiments:
# [1] = molecular target: T1, human GPCR sphingosine 1-phosphate receptor 1 (Homo sapiens, UniProt P21453); assay: S1PR1 selectivity Ca2+ flux assay (antagonist readout); format: cell-based; settings: antagonist readout, CHO cells overexpressing human S1PR1 and Gq, S1P at EC80 (6 nM); read-out: S1P1 EC50 (nM), S1P1 antagonist EC50
# T1 construct: host or cells: CHO
# Protocol: 50 μL of Chinese hamster ovary (CHO) cells stably overexpressing human S1PR1 or S1PR5 are seeded in 384 well sterile microplates (7,500 cells/well or 10,000 cells/well respectively) and are incubated overnight at 37° C. under 5% CO2. Cells are subsequently washed twice with 25 μL/well of starvation medium (F-12 Ham's medium containing 0.1% fatty acid free bovine serum albumin (FAF BSA)). After one h starvation at 37° C., 5% CO2, cells are loaded with 25 μL of Fluo 8 dye diluted in Hank's balanced salt solution (HBSS) with 20 mM Hepes complemented with 5 mM of probenecid following the recommendations of the manufacturer (one h at 37° C., 5% CO2). Dilution series of compounds are prepared in HBSS buffer with 20 mM Hepes and 0.1% BSA (FAF). 10 μL of diluted compound is added to the cells using the FDSS/pCELL and intracellular calcium changes are measured immediately by recording fluorescence during 3 min (agonist readout). The ratio of maximal signal over background before compound injection is used to determine compound response.
# After an incubation of 15 min at 37° C., following the agonist readout, the plates are transferred to the FDSS/pCELL reader. […] The ratio of maximal signal over background before S1P injection was used to determine the inhibitory effect ofthe compound.
# Raw data obtained in each experiment (ratio of maximal signal over background for calcium mobilization assays) were normalized in percentage of activation (agonist mode) or inhibition (antagonist mode) using positive and negative experiment controls. Each individual plate quality was assessed by evaluation of Z′ factor calculated with raw data using the following equation
# Y=bottom+(top−bottom)/(1+(10^(Log IC50−X)*Hillslope)) where X is the logarithm of the concentration of the compound
# S1PR2 = molecular target: T2, S1PR2 (Homo sapiens, UniProt O95136); assay: S1PR2 binding assay (competition with radioactively labeled S1P, SpA); settings: membranes from stable cell line over expressing S1PR2, SpA beads; read-out: S1P2 EC50 (nM), S1PR2 binding EC50
# T2 construct: expressed in transfected cells
# Method in brief: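 Competition with [3H]S1P for membranes from a stable S1PR2-overexpressing cell line, 20 μg/well, captured on PVT-WGA SPA beads, in 20 mM Tris pH 7.5, 10 mM MgCl2, 100 mM NaCl, 0.4% fatty-acid-free BSA, 1 mM Na3VO4. 2 h at room temperature, then centrifugation and scintillation counting.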
# HFL-1 cells [2] = assay: IL-8 production assay (S1P induced IL-8); format: cell-based; settings: Homo sapiens, HFL1; S1P (1 μM) induced IL-8 in HFL-1 cells, starvation medium without HSA; read-out: IL8 EC50
# Method in brief: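 HFL-1 human fetal lung fibroblasts were starved in F12K/1% FBS, then given compound for 1 h (10-point, 1/3 dilution, 30 μM top, 0.3% DMSO final). S1P was added at 1 μM final for 16–24 h at 37 °C, and secreted IL-8 in supernatant quantified by ELISA.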
# HFL-1 cells [3] = assay: IL8 assay in the presence of Human Serum Albumin; settings: HFL1, read-out: HSA IL8 EC50
# [4] = molecular target: T3, human GPCR sphingosine 1-phosphate receptor 2 (Homo sapiens, UniProt O95136); assay: S1PR2 antagonist Ca2+ flux assay; format: cell-based; settings: antagonist mode, CHO-S1PR2 cells, S1P at EC80, Ca2+ fluorescence; read-out: S1P2 EC50 (nM), S1P2 antagonist EC50
# T3 construct: host or cells: CHO
# Method in brief: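 CHO cells stably expressing human S1PR2, serum-starved 1 h, Fluo8-loaded; compound-evoked Ca2+ fluorescence read 3 min (agonist mode), then after 15 min S1P at EC80 added and read 3 min (antagonist mode). Max/baseline fluorescence ratios normalised to vehicle and S1P EC100 or EC50 controls; EC50 derived.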
# T3 sequence (O95136 whole entry): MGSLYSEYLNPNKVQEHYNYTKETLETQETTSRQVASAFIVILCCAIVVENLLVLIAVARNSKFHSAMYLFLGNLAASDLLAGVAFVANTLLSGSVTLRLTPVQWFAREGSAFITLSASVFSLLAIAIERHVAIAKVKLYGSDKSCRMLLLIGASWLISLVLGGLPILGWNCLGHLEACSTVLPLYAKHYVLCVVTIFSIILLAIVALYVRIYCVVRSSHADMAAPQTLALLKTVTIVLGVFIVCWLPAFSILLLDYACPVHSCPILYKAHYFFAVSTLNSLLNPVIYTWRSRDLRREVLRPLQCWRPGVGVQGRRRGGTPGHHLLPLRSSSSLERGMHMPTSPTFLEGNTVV
# T2 sequence (O95136 whole entry): as above
# T1 sequence (P21453 whole entry): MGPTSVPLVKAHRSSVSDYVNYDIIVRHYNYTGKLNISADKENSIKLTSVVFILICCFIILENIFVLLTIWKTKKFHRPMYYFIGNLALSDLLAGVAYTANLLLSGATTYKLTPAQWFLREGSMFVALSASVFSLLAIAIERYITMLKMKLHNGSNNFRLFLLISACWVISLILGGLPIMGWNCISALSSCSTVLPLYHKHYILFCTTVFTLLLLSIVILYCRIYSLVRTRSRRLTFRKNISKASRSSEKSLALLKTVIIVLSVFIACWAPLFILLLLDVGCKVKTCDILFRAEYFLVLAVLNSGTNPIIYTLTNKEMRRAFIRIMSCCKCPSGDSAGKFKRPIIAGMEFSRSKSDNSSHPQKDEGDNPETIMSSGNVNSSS
Structure (SMILES),EC50 [1] [nM],EC50 (S1PR2) [nM],EC50 (HFL-1 cells [2]) [nM],EC50 (HFL-1 cells [3]) [nM],EC50 [4] [nM]
"CN1CCC(n2nc(Cc3nc4cc(OCC(F)F)c(C#N)cc4[nH]3)c3ccccc3c2=O)C1 (centres unmarked) [Compound 72, 6-(2,2-difluoroethoxy)-2-[[3-(1-methylpyrrolidin-3-yl)-4-oxo-phthalazin-1-yl]methyl]-3H-benzimidazole-5-carbonitrile]",≥ 19800,3090,5180,1950,–
"O=C(O)C1CCC1n1nc(Cn2cc3cc(OCC4CC4)c(Cl)cc3n2)c2ccccc2c1=O (centres unmarked) [Compound 91, 2-[4-[[6-chloro-5-(cyclopropylmethoxy)indazol-2-yl]methyl]-1-oxo-phthalazin-2-yl]cyclobutanecarboxylic acid]",≥ 19800,–,60.7,5710,22.2
"O=C(O)Cn1nc(Cc2nc3cc(OC(F)(F)F)c(Cl)cc3[nH]2)c2ccccc2c1=O [Compound 112, 2-[4-[[6-chloro-5-(trifluoromethoxy)-1H-benzimidazol-2-yl]methyl]-1-oxo-phthalazin-2-yl]acetic acid]",≥ 19900,–,541,1640,–
"O=C(O)Cn1nc(Cc2nc3cc(Cl)c(OC(F)(F)F)cc3[nH]2)c2c(c1=O)CCCC2 [Compound 113, 2-[4-[[5-chloro-6-(trifluoromethoxy)-1H-benzimidazol-2-yl]methyl]-1-oxo-5,6,7,8-tetrahydrophthalazin-2-yl]acetic acid]",≥ 19900,154,418,917,23.7
"COc1cc2nc(Cc3nn(CC(=O)O)c(=O)c4ccccc34)[nH]c2cc1Cl [Compound 136, 2-[4-[(6-chloro-5-methoxy-1H-benzimidazol-2-yl)methyl]-1-oxo-phthalazin-2-yl]acetic acid]",≥ 19900,–,26,–,–
"O=C(Cn1nc(Cc2nc3cc(OC(F)(F)F)c(Cl)cc3[nH]2)c2ccccc2c1=O)NC1CCS(=O)(=O)CC1 [Compound 141, 2-[4-[[6-chloro-5-(trifluoromethoxy)-1H-benzimidazol-2-yl]methyl]-1-oxo-phthalazin-2-yl]-N-(1,1-dioxothian-4-yl)acetamide]",≥ 19900,70.6,130,–,21.1
"CC(C)(C)NC(=O)Cn1nc(Cc2nc3cc(OCC(F)F)c(C#N)cc3[nH]2)c2c(c1=O)CCCC2 [Compound 203, N-tert-butyl-2-[4-[[6-cyano-5-(2,2-difluoroethoxy)-1H-benzimidazol-2-yl]methyl]-1-oxo-5,6,7,8-tetrahydrophthalazin-2-yl]acetamide]",–,343,1020,1940,148
"N#Cc1cc2nn(Cc3nn(CC(=O)N4CCOCC4)c(=O)c4ccccc34)cc2cc1OCC(F)F [Compound 205, 5-(2,2-difluoroethoxy)-2-[[3-(2-morpholino-2-oxo-ethyl)-4-oxo-phthalazin-1-yl]methyl]indazole-6-carbonitrile]",–,7680,2640,9070,13200
CN(C)[C@@H]1CCN(C(=O)Cn2nc(Cn3cc4cc(OCC(F)F)c(C#N)cc4n3)c3ccccc3c2=O)C1 [Compound 206],–,3620,2990,2630,≥ 19800
"CN(C)[C@H]1CCN(C(=O)Cn2nc(Cn3cc4cc(OCC(F)F)c(C#N)cc4n3)c3ccccc3c2=O)C1 [Compound 207, 5-(2,2-difluoroethoxy)-2-[[3-[2-[(3S)-3-(dimethylamino)pyrrolidin-1-yl]-2-oxo-ethyl]-4-oxo-phthalazin-1-yl]methyl]indazole-6-carbonitrile]",–,21900,29900,3030,≥ 19800
"CC1(O)CCN(C(=O)Cn2nc(Cc3cn4cc(OCC5CC5)c(C#N)cc4n3)c3ccccc3c2=O)C1 (centres unmarked) [Compound 210, 6-(cyclopropylmethoxy)-2-[[3-[2-(3-hydroxy-3-methyl-pyrrolidin-1-yl)-2-oxo-ethyl]-4-oxo-phthalazin-1-yl]methyl)imidazo[1,2-a]pyridine-7-carbonitrile]",–,233,356,188,102
"N#Cc1cc2[nH]c(Cc3nn(CC(=O)N4CCC(C#N)CC4)c(=O)c4ccccc34)nc2cc1OCC(F)F [Compound 219, 2-[[3-[2-(4-cyano-1-piperidyl)-2-oxo-ethyl]-4-oxo-phthalazin-1-yl]methyl]-6-(2,2-difluoroethoxy)-3H-benzimidazole-5-carbonitrile]",–,265,177,607,32.4
"CN(CCS(C)(=O)=O)C(=O)Cn1nc(Cc2nc3cc(OCC(F)F)c(C#N)cc3[nH]2)c2ccccc2c1=O [Compound 220, 2-[4-[[6-cyano-5-(2,2-difluoroethoxy)-1H-benzimidazol-2-yl)methyl]-1-oxo-phthalazin-2-yl]-N-methyl-N-(2-methylsulfonylethyl)acetamide]",–,320,102,325,52.6
"CS(=O)(=O)C1CCN(C(=O)Cn2nc(Cc3nc4cc(OCC(F)F)c(C#N)cc4[nH]3)c3ccccc3c2=O)C1 (centres unmarked) [Compound 221, 6-(2,2-difluoroethoxy)-2-[[3-[2-(3-methylsulfonylpyrrolidin-1-yl)-2-oxo-ethyl]-4-oxo-phthalazin-1-yl]methyl]-3H-benzimidazole-5-carbonitrile]",–,365,127,387,45.8
"CC1(C)CCN(C(=O)Cn2nc(Cc3nc4cc(OCC(F)F)c(C#N)cc4[nH]3)c3ccccc3c2=O)C1 [Compound 233, 6-(2,2-difluoroethoxy)-2-[[3-[2-(3,3-dimethylpyrrolidin-1-yl)-2-oxo-ethyl]-4-oxo-phthalazin-1-yl]methyl]-3H-benzimidazole-5-carbonitrile]",–,210,28.8,562,16.8
"N#Cc1cc2[nH]c(Cc3nn(CC(=O)N4CCC5(C4)CC5(F)F)c(=O)c4ccccc34)nc2cc1OCC(F)F (centres unmarked) [Compound 235, 2-[[3-[2-(2,2-difluoro-5-azaspiro[2.4]heptan-5-yl)-2-oxo-ethyl]-4-oxo-phthalazin-1-yl]methyl]-6-(2,2-difluoroethoxy)-3H-benzimidazole-5-carbonitrile]",–,117,49.2,159,18.2
"O=c1c2ccccc2c(Cn2cc3cc(OCC4CC4)c(Cl)cc3n2)nn1C1CNC1 [compound 2, 2-(azetidin-3-yl)-4-[[6-chloro-5-(cyclopropyl-methoxy)indazol-2-yl]methyl]-phthalazin-1-one]",–,75.7,38.8,166,81.6
"CC(=O)N1CCCC1Cn1nc(Cc2nc3cc(Cl)c(OC(F)(F)F)cc3[nH]2)c2ccccc2c1=O (centres unmarked) [compound 14, 2-[(1-acetylpyrrolidin-2-yl)-methyl]-4-[[5-chloro-6-(tri-fluoromethoxy)-1H-benzimidazol-2-yl]methyl]-phthalazin-1-one]",–,4950,1450,10000,615
"O=C(O)Cc1nn(Cc2cc3cc(Cl)c(OCC4CC4)cc3[nH]2)c2ccccc2c1=O [compound 16, 2-[1-[[5-chloro-6-(cyclopropyl-methoxy)-1H-indol-2-yl]-methyl]-4-oxo-cinnolin-3-yl]-acetic acid]",–,29.9,8.49,51.4,4.58
